Patent US9273057B2 (Bristol-Myers Squibb Company, priority 2012, dated 2016)
Where a name gives a salt, the structure may show the parent alone.

Target: CK2A1 (CK2α/β) (Homo sapiens, UniProt P68400)
Assay: CK2 kinase assay, CK2A1 (CK2α/β)
Assay type: biochemical
Details: Table A; read-out: CK2A1 (CK2α/β) (IC50)

Sequence of CK2A1 (CK2α/β) (P68400 whole entry, species assumed): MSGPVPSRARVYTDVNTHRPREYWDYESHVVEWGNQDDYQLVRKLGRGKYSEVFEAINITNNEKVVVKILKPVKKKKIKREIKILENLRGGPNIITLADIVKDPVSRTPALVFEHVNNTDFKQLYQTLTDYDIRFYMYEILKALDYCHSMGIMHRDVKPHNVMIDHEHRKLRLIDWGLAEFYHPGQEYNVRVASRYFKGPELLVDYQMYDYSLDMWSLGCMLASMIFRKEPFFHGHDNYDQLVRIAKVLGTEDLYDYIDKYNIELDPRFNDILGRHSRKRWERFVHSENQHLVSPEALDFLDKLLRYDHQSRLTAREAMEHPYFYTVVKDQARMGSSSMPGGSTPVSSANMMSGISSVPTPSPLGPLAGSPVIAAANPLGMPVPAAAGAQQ
Sequence of CK2A1 (CK2α/β) (P67870 whole entry partner, species assumed): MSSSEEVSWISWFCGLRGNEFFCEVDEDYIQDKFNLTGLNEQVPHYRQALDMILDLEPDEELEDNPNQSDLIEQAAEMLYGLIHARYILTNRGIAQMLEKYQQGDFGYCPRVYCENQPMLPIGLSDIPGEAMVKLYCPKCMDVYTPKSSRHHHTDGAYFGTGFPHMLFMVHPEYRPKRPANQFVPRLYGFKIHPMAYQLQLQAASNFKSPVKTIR

`COC[C@@H](O)CN1CCN(c2cc(C#N)cc(Nc3nc(NC4CC4)c4ncc(C#N)n4n3)c2Cl)CC1` [Example 602, 2-[(2-chloro-5-cyano-3-{4-[(2S)-2-hydroxy-3-methoxypropyl]piperazin-1-yl}phenyl)amino]-4-(cyclopropylamino)imidazo [2,1-f][1,2,4]triazine-7-carbonitrile] gave an IC50 of 4.34 nM.

In the case of `CC(O)CCc1cc(Cl)c(Nc2nc(NC3CC3)c3ncc(C#N)n3n2)cc1C#N` (stereo not drawn) [Example 722, 2-{[2-chloro-5-cyano-4-(3-hydroxybutyl)phenyl]amino}-4-(cyclopropylamino)imidazo [2,1-f][1,2,4]triazine-7-carbonitrile], the IC50 is reported as 0.16 nM.

`CC(=O)N[C@@H]1CCN(c2cc(C#N)cc(Nc3nc(NC4CC4)c4ncc(C#N)n4n3)c2Cl)C[C@H]1O` (racemic) [Example 172, (+/−)-N-((3R,4R)-1-(2-chloro-5-cyano-3-((7-cyano-4-(cyclopropylamino)imidazo[2,1-f][1,2,4]triazin-2-yl)amino)phenyl)-3-hydroxypiperidin-4-yl)acetamide] showed an IC50 of 0.51 nM.

`CC(O)C1(N2CCN(c3cc(C(F)F)cc(Nc4nc(NC5CC5)c5ncc(C#N)n5n4)c3Cl)CC2)COC1` (stereo not drawn) [Example 271, 2-((2-chloro-5-(difluoromethyl)-3-(4-(3-(1-hydroxyethyl)-3-oxetanyl)-1-piperazinyl)phenyl)amino)-4-(cyclopropylamino)imidazo[2,1-f][1,2,4]triazine-7-carbonitrile] showed an IC50 of 1.22 nM.

Work on `N#Cc1cc(Nc2nc(NC3CC3)c3ncc(C#N)n3n2)c(Cl)c(N2CC[C@@H](NC(=O)OCCN3CCOCC3)[C@H](O)C2)c1` [Example 178, 2-morpholinoethyl ((3R,4R)-1-(2-chloro-5-cyano-3-((7-cyano-4-(cyclopropylamino)imidazo[2,1-f][1,2,4]triazin-2-yl)amino)phenyl)-3-hydroxypiperidin-4-yl)carbamate] yielded an IC50 of 0.77 nM.

Work on `CC(C)(C)CNCc1cc(C#N)cc(Nc2nc(NC3CC3)c3ncc(C#N)n3n2)c1Cl` [Example 469, 2-[(2-chloro-5-cyano-3-{[(2,2-dimethylpropyl)amino]methyl}phenyl)amino]-4-(cyclopropylamino)imidazo[2,1-f][1,2,4]triazine-7-carbonitrile] yielded an IC50 of 1.48 nM.

For `CN(C)C(=O)C1CN(c2cc(C#N)cc(Nc3nc(NC4CC4)c4ncc(C#N)n4n3)c2Cl)CCN1CC(O)CF` (single isomer, unassigned) [Example 316, (+/−) 4-(2-chloro-5-cyano-3-((7-cyano-4-(cyclopropylamino)imidazo [2,1-f][1,2,4]triazin-2-yl)amino)phenyl)-1-(3-fluoro-2-hydroxypropyl)-N,N-dimethyl-2-piperazinecarboxamide], the IC50 was 1.87 nM.

Work on `CC(F)(F)C(=O)N1CC(N2CCN(c3cc(C#N)cc(Nc4nc(NC5CC5)c5ncc(C#N)n5n4)c3Cl)CC2)C1` [Example 516, 2-[(2-chloro-5-cyano-3-{4-[1-(2,2-difluoropropanoyl)azetidin-3-yl]piperazin-1-yl}phenyl)amino]-4-(cyclopropylamino)imidazo[2,1-f][1,2,4]triazine-7-carbonitrile] yielded an IC50 of 4.09 nM.

With `COC(=O)N1CC(N2CCC(c3cc(C#N)cc(Nc4nc(NC5CC5)c5ncc(C#N)n5n4)c3Cl)CC2)C1` [Example 320, methyl 3-(4-(2-chloro-5-cyano-3-((7-cyano-4-(cyclopropylamino)imidazo[2,1-f][1,2,4]triazin-2-yl)amino)phenyl)piperidin-1-yl)azetidine-1-carboxy] the IC50 was 0.35 nM.

In the case of `CC(C)(O)[C@H]1CN(c2cc(C#N)cc(Nc3nc(NC4CC4)c4ncc(C#N)n4n3)c2Cl)CCO1` [Example 38, 2-((2-chloro-5-cyano-3-((2R)-2-(1-hydroxy-1-methylethyl)-4-morpholinyl)phenyl)amino)-4-(cyclopropylamino)imidazo [2,1-f][1,2,4]triazine-7-carbonitrile], the IC50 is reported as 1.2 nM.

`N#Cc1cc(Nc2nc(NC3CC3)c3ncc(C#N)n3n2)c(Cl)c(N2CCC3C(CCN3C[C@@H](O)CF)C2)c1` (stereo partly drawn) [Example 448, 2-((2-chloro-5-cyano-3-(1-((R)-3-fluoro-2-hydroxypropyl)hexahydro-1H-pyrrolo[3,2-c]pyridin-5(6H)-yl)phenyl)amino)-4-(cyclopropylamino)imidazo[2,1-f][1,2,4]triazine-7-carbonitrile] gave an IC50 of 0.88 nM.

With `N#Cc1cc(Nc2nc(NC3CC3)c3ncc(C#N)n3n2)c(Cl)c(N2CCN(C(=O)CCN3CCCCC3)CC2)c1` [Example 82, 2-((2-chloro-5-cyano-3-(4-(3-(1-piperidinyl)propanoyl)-1-piperazinyl)phenyl)amino)-4-(cyclopropylamino) imidazo[2,1-f][1,2,4] triazine-7-carbonitrile] the IC50 was 0.79 nM.

Work on `CCNc1nc(Nc2cc(C#N)cc(N3CC[C@@H](NC(=O)OC)[C@H](OC(=O)CC[C@H](N)C(=O)OC)C3)c2Cl)nn2c(C#N)cnc12` [Example 814, (S)-5-((3R,4R)-1-(2-chloro-5-cyano-3-((7-cyano-4-(ethylamino)imidazo[2,1-f][1,2,4]triazin-2-yl)amino)phenyl)-4-((methoxycarbonyl)amino)piperidin-3-yl) 1-methyl 2-aminopentanedioate hydrochloride] yielded an IC50 of 24.9 nM.

With `CC(C)(O)CNCC1CN(c2cc(C#N)cc(Nc3nc(NC4CC4)c4ncc(C#N)n4n3)c2Cl)CCO1` (stereo not drawn) [Example 709, 2-{[2-chloro-5-cyano-3-(2-{[(2-hydroxy-2-methylpropyl)amino]methyl}morpholin-4-yl)phenyl]amino}-4-(cyclopropylamino)imidazo[2,1-f][1,2,4]triazine-7-carbonitrile] the IC50 was 2.94 nM.

Work on `CC(=O)N1CC(N2CCN(c3cc(C#N)cc(Nc4nc(NC5CC5)c5ncc(C#N)n5n4)c3F)CC2)C1` [Example 551, 2-((3-(4-(1-acetylazetidin-3-yl)piperazin-1-yl)-5-cyano-2-fluorophenyl)amino)-4-(cyclopropylamino)imidazo[2,1-f][1,2,4]triazine-7-carbonitrile] yielded an IC50 of 1.23 nM.

Work on `N#Cc1cc(Nc2nc(NC3CC3)c3ncc(C#N)n3n2)c(Cl)c(C2CCN(C(=O)CC(F)(F)F)CC2)c1` [Example 237, 2-((2-chloro-5-cyano-3-(1-(3,3,3-trifIuoropropanoyl)-4-piperidinyl)phenyl)amino)-4-(cyclopropylamino)imidazo[2,1-f][1,2,4]triazine-7-carbonitrile] yielded an IC50 of 0.41 nM.

Compound `N#Cc1cc(Nc2nc(NC3CC3)c3ncc(C#N)n3n2)c(Cl)c(C2CCN(CC3CC3)CC2)c1` [Example 215, 2-((2-chloro-5-cyano-3-(1-(cyclopropylmethyl)-4-piperidinyl)phenyl)amino)-4-(cyclopropylamino)imidazo[2,1-f][1,2,4]triazine-7-carbonitrile] has an IC50 of 0.62 nM.

`N#Cc1cc(Nc2nc(NC3CC3)c3ncc(C#N)n3n2)c(Cl)cc1CCCN1CC(O)C1` [Example 569, 2-((2-chloro-5-cyano-4-(3-(3-hydroxyazetidin-1-yl)propyl)phenyl)amino)-4-(cyclopropylamino)imidazo[2,1-f][1,2,4]triazine-7-carbonitrile] showed an IC50 of 0.7 nM.

Work on `N#Cc1cc(Nc2nc(NC3CC3)c3ncc(C#N)n3n2)c(Cl)c(N2CCN(CCC(F)F)CC2)c1` [Example 595, 2-({2-chloro-5-cyano-3-[4-(3,3-difluoropropyl)piperazin-1-yl]phenyl}amino)-4-(cyclopropylamino)imidazo [2,1-f][1,2,4]triazine-7-carbonitrile] yielded an IC50 of 1.44 nM.

Work on `CN(C)C(=O)C1CN(c2cc(C#N)cc(Nc3nc(NC4CC4)c4ncc(C#N)n4n3)c2Cl)CCN1CC(F)F` (stereo not drawn) [Example 565, 4-(2-chloro-5-cyano-3-((7-cyano-4-(cyclopropylamino)imidazo[2,1-f][1,2,4]triazin-2-yl)amino)phenyl)-1-(2,2-difluoroethyl)-N,N-dimethylpiperazine-2-carboxamide] yielded an IC50 of 180 nM.

`COC(=O)N1CCC2CN(c3cc(C#N)cc(Nc4nc(NC5CC5)c5ncc(C#N)n5n4)c3Cl)CCC21` (stereo not drawn) [Example 445, methyl 5-(2-chloro-5-cyano-3-((7-cyano-4-(cyclopropylamino)imidazo[2,1-f][1,2,4]triazin-2-yl)amino)phenyl)octahydro-1H-pyrrolo[3,2-c]pyridine-1-carboxylate] showed an IC50 of 2.9 nM.

`CCNc1nc(Nc2cc(C#N)cc(N3CC[C@@H]4[C@@H](C3)OC(=O)N4[C@H]3CCOC3)c2Cl)nn2c(C#N)cnc12` (single isomer, unassigned) [Example 843] showed an IC50 of 2.16 nM.

With `CC(C)(O)C1CN(c2cc(C#N)cc(Nc3nc(NC4CC4)c4ncc(C#N)n4n3)c2Cl)CCO1` (racemic) [Example 33, (+/−) 2-((2-chloro-5-cyano-3-(2-(1-hydroxy-1-methylethyl)-4-morpholinyl)phenyl)amino)-4-(cyclopropylamino)imidazo [2,1-f][1,2,4]triazine-7-carbonitrile] the IC50 was 0.54 nM.

In the case of `N#Cc1cc(Nc2nc(NC3CC3)c3ncc(C#N)n3n2)c(Cl)c(C(F)C2CCNCC2)c1` (stereo not drawn) [Example 662, 2-((2-chloro-5-cyano-3-(fluoro(piperidin-4-yl)methyl)phenyl)amino)-4-(cyclopropylamino)imidazo[2,1-f][1,2,4]triazine-7-carbonitrile], the IC50 is reported as 0.48 nM.

`COC(=O)N[C@@H]1CN(c2cc(C#N)cc(Nc3nc(NC4CC4)c4ncc(C#N)n4n3)c2Cl)C[C@H]1C` (racemic) [Example 21, (+/−) methyl ((3S,4R)-1-(2-chloro-5-cyano-3-((7-cyano-4-(cyclopropylamino)imidazo [2,1-f][1,2,4]triazin-2-yl)amino)phenyl)-4-methyl-3-pyrrolidinyl)carbamate] gave an IC50 of 1.16 nM.

Compound `CCNc1nc(Nc2cc(C#N)cc(N3CC[C@@H](NC(=O)OC)[C@H](OC(=O)[C@@H](N)CCCN)C3)c2Cl)nn2c(C#N)cnc12` [Example 811, (S)-(3R,4R)-1-(2-chloro-5-cyano-3-((7-cyano-4-(ethylamino)imidazo[2,1-f][1,2,4]triazin-2-yl)amino)phenyl)-4-((methoxycarbonyl)amino)piperidin-3-yl 2,5-diaminopentanoate dihydrochloride] has an IC50 of 1.88 nM.

`COC(=O)N[C@@H]1CCN(c2cc(C#N)cc(Nc3nc(NC4CC4)c4ncc(C#N)n4n3)c2Cl)C[C@H]1OC(=O)[C@H](C)N` [Example 195, (3R,4R)-1-(2-chloro-5-cyano-3-((7-cyano-4-(cyclopropylamino)imidazo[2,1-f][1,2,4]triazin-2-yl)amino)phenyl)-4-((methoxycarbonyl)amino)-3-piperidinyl L-alaninate] gave an IC50 of 0.5 nM.
